Test results published in patent US8039514B2, “Sulfonamide compounds and use thereof” (Asahi Kasei Pharma Corporation, priority 2008, dated 2011).

target: T1, human calcium-sensing receptor (CaSR) (Homo sapiens, UniProt P41180); test: intracellular Ca assay, CaSR antagonist activity in HEK293/hCaSR cells; assay type: cell-based; conditions: Fura2-AM, inhibition of response to calcium chloride ligand solution, read-out: IC50 values according to the intracellular Ca assay (CaSR antagonist activity)
T1 construct: expressed in transfected cells
T1 sequence (P41180 20-1078): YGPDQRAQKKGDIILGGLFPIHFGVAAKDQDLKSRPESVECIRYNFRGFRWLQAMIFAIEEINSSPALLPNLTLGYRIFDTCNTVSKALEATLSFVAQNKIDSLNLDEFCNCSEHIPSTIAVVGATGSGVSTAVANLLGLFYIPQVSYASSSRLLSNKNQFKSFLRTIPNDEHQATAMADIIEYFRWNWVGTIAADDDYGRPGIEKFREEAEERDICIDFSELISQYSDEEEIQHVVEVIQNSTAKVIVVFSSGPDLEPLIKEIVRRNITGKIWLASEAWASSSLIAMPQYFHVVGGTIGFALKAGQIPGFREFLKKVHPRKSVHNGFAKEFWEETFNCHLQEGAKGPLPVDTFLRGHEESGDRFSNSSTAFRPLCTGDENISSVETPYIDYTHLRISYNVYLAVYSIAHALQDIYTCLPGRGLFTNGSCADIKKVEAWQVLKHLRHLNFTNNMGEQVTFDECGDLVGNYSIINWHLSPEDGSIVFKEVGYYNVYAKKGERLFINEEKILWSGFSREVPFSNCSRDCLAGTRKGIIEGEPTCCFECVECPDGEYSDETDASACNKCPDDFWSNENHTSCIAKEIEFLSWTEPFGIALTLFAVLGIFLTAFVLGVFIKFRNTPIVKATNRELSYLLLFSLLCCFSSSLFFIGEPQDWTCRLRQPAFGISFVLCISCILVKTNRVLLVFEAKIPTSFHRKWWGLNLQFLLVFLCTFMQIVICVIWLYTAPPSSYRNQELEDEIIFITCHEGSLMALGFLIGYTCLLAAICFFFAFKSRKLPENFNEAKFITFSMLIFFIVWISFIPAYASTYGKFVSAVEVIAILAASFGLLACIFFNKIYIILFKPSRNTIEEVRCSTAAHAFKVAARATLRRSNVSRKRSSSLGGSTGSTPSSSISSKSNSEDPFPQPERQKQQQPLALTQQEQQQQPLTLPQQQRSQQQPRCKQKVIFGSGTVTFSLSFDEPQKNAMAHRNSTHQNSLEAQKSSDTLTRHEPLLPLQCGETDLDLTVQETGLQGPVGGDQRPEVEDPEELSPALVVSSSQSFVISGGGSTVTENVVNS
Procedure: HEK293 cells stably expressing human calcium-sensing receptor (CaSR) (termed HEK293/hCaSR cells) were used. HEK293/hCaSR cells were cultured in a culture medium [DMEM medium containing 0.5 mg/mL Geneticin, 50 Unit/mL penicillin, 50 μg/mL streptomycin and 10% fetal bovine serum (FBS), all manufactured by Invitrogen] to semiconfluent in an incubator at 37° C. under 5% carbon dioxide atmosphere.
Cultured cells were washed with phosphate buffered saline (PBS(−), manufactured by Dainippon Sumitomo Pharmaceutical Company) which had been prewarmed to 37° C., added with PBS(−) containing 10 mM ethylenediamine tetraacetic acid (EDTA), and then incubated in an incubator at 37° C. for 10 minutes. After adding the culture medium to separate the cells, cell suspension was transferred to a centrifuge tube. Cells were collected by centrifuge at 1,500 rpm for 3 minutes, and resuspended in Ca assay buffer [20 mM HEPES buffer (pH 7.4), 115 mM sodium chloride, 5.4 mM potassium chloride, 0.8 mM magnesium chloride, 0.8 mM calcium chloride, 13.8 mM D(+)-glucose (all manufactured by Wako Pure Chemicals) and 0.1% bovine serum albumin (manufactured by SIGMA)] containing 0.2% Pluronic F-127 (manufactured by Molecular Probes) and […] Fura2-AM (manufactured by DOJINDO LABORATORIES) to obtain a cell suspension of 5×10^6 cells/mL. After incubating at 37° C. for 30 minutes, the cells were washed twice with the Ca assay buffer and suspended in the same buffer to obtain a cell suspension of 1×10^6 cells/60 μL. 60 μL of the cell suspension was aliquoted to each well of a 96 well UV microplate (manufactured by Corning Co.) to give a cell plate.
The test compound was diluted with the Ca assay buffer to five times the final concentration and then 80 μL of the diluted compound was applied to each well of a 96 well round bottomed microplate (manufactured by Corning Co.) to give a sample plate. 80 μL of the Ca assay buffer containing 7.5 mM calcium chloride (i.e., ligand solution) was applied to each well of a 96 well round bottomed microplate to give a ligand plate. Then, thus prepared sample plate, ligand plate, and the cell plate were placed in Functional Drug Screening System (FDSS) 4000 (manufactured by Hamamatsu Photonics K.K.) which had been preswitched on and prewarmed to 37° C. Measurements were then carried out as follows. After incubating the cell plate for 180 seconds, fluorescence intensity was measured every two seconds (excitation wavelength; 340 nm and 380 nm, measurement wavelength; 500 nm). After the measurement for 40 seconds, 20 μL of the test compound solution from the sample plate was added to the cell plate, followed by continuous measurement for 160 seconds. Then, 20 μL of the ligand solution from the ligand plate was added to the cell plate, followed by continuous measurement for 100 seconds.
Amount of change in intracellular Ca concentration is indicated as a peak height of the ratio of the fluorescence intensity with excitation of 340 nm and 380 nm (i.e., fluorescence intensity with excitation at 340 nm/fluorescence intensity with excitation at 380 nm) that is obtained from the difference between the maximum ratio after adding the ligand solution and the ratio before adding the ligand solution. Further, when the peak height obtained from the Ca assay buffer containing no test compound has inhibition ratio of 0% while the peak height obtained from the Ca assay buffer containing no calcium chloride as a ligand solution has inhibition ratio of 100%, inhibition ratio for each test compound (i.e., CaSR antagonist activity) was calculated.

IC50, 1 to 3 µM:
CN(C[C@H](O)CNC(C)(C)Cc1ccc2ccccc2c1)S(=O)(=O)c1ccc(-c2cc3c(c(C(=O)O)c2)OCC3)cc1 [Exp. 3-36, (R)-5-(4-(N-(2-hydroxy-3-(2-methyl-1-(naphthalen-2-yl)propan-2-ylamino)propyl)-N-methylsulfamoyl)phenyl)-2,3-dihydrobenzofuran-7-carboxylic acid]
CN(C[C@H](O)CNC(C)(C)Cc1ccc2ccccc2c1)S(=O)(=O)Cc1ccc(-c2ccc(CCC(=O)O)cc2)cc1 [Exp. 3-90, (R)-3-(4′-((N-(2-hydroxy-3-(2-methyl-1-(naphthalen-2-yl)propan-2-ylamino)propyl)-N-methylsulfamoyl)methyl)biphenyl-4-yl)propionic acid]
CN(C[C@H](O)CNC(C)(C)Cc1ccc2ccccc2c1)S(=O)(=O)Cc1ccc(-c2cccc(C=CC(=O)O)c2)cc1 [Exp. 3-91, (R)-3-(4′-((N-(2-hydroxy-3-(2-methyl-1-(naphthalen-2-yl)propan-2-ylamino)propyl)-N-methylsulfamoyl)methyl)biphenyl-3-yl)acrylic acid]
Cc1ccc(-c2ccc(S(=O)(=O)N(C)C[C@H](O)CNC(C)(C)Cc3ccc4ccccc4c3)cc2)cc1C(=O)O [Exp. 3-32, (R)-4′-(N-(2-hydroxy-3-(2-methyl-1-(naphthalen-2-yl)propan-2-ylamino)propyl)-N-methylsulfamoyl)-4-methylbiphenyl-3-carboxylic acid]
CN(C[C@H](O)CNC(C)(C)Cc1ccc2ccccc2c1)S(=O)(=O)Cc1cccc(-c2ccc(CCC(=O)O)cc2)c1 [Exp. 3-87, (R)-3-(3′-((N-(2-hydroxy-3-(2-methyl-1-(naphthalen-2-yl)propan-2-ylamino)propyl)-N-methylsulfamoyl)methyl)biphenyl-4-yl)propionic acid]

IC50, ≤ 0.3 µM:
CN(C[C@H](O)CNC(C)(C)CC1Cc2ccccc2C1)S(=O)(=O)c1cc(-c2ccc(F)c(C(=O)O)c2)cc(C(F)(F)F)c1 [Exp. 3-193, (R)-3′-(N-(3-(1-(2,3-dihydro-1H-inden-2-yl)-2-methylpropan-2-ylamino)-2-hydroxypropyl)-N-methylsulfamoyl)-4-fluoro-5′-(trifluoromethyl)biphenyl-3-carboxylic acid]
CCc1cc(-c2ccc(CC(=O)O)cc2)ccc1S(=O)(=O)N(C)C[C@H](O)CNC(C)(C)CC1Cc2ccccc2C1 [Exp. 3-147, (R)-2-(4′-(N-(3-(1-(2,3-dihydro-1H-inden-2-yl)-2-methylpropan-2-ylamino)-2-hydroxypropyl)-N-methylsulfamoyl)-3′-ethylbiphenyl-4-yl)acetic acid]
CN(C[C@H](O)CNC(C)(C)CC1Cc2ccccc2C1)S(=O)(=O)c1cccc(-c2cc(F)cc(C(=O)O)c2)c1 [Exp. 3-60, (R)-3′-(N-(3-(1-(2,3-dihydro-1H-inden-2-yl)-2-methylpropan-2-ylamino)-2-hydroxypropyl)-N-methylsulfamoyl)-5-fluorobiphenyl-3-carboxylic acid]
CN(C[C@H](O)CNC(C)(C)CCCc1ccccc1)S(=O)(=O)c1ccc(-c2ccc(CCC(=O)O)cc2)c(Cl)c1 [Exp. 3-114, (R)-3-(2′-chloro-4′-(N-(2-hydroxy-3-(2-methyl-5-phenylpentan-2-ylamino)propyl)-N-methylsulfamoyl)biphenyl-4-yl)propionic acid]
Cc1cc(-c2cc(C(F)(F)F)cc(S(=O)(=O)N(C)C[C@H](O)CNC(C)(C)CC3Cc4ccccc4C3)c2)ccc1C(=O)O [Exp. 3-197, (R)-3′-(N-(3-(1-(2,3-dihydro-1H-inden-2-yl)-2-methylpropan-2-ylamino)-2-hydroxypropyl)-N-methylsulfamoyl)-3-methyl-5′-(trifluoromethyl)biphenyl-4-carboxylic acid]
CN(C[C@H](O)CNC(C)(C)CC1Cc2ccccc2C1)S(=O)(=O)c1cccc(-c2ccc(C(=O)O)cc2F)c1 [Exp. 3-55, (R)-3′-(N-(3-(1-(2,3-dihydro-1H-inden-2-yl)-2-methylpropan-2-ylamino)-2-hydroxypropyl)-N-methylsulfamoyl)-2-fluorobiphenyl-4-carboxylic acid]
CN(C[C@H](O)CNC(C)(C)Cc1ccc2ccccc2c1)S(=O)(=O)c1cccc(-c2cc(F)cc(C(=O)O)c2)c1 [Exp. 3-23, (R)-5-fluoro-3′-(N-(2-hydroxy-3-(2-methyl-1-(naphthalen-2-yl)propan-2-ylamino)propyl)-N-methylsulfamoyl)biphenyl-3-carboxylic acid]

IC50, 0.3 to 1 µM:
Cc1ccc(-c2cccc(S(=O)(=O)N(C)C[C@H](O)CNC(C)(C)CC3Cc4ccccc4C3)c2)cc1C(=O)O [Exp. 3-51, (R)-3′-(N-(3-(1-(2,3-dihydro-1H-inden-2-yl)-2-methylpropan-2-ylamino)-2-hydroxypropyl)-N-methylsulfamoyl)-4-methylbiphenyl-3-carboxylic acid]
CN(C[C@H](O)CNC(C)(C)Cc1ccc2ccccc2c1)S(=O)(=O)c1ccc(-c2ccc(C(=O)O)cc2)cc1 [Exp. 3-31, (R)-4′-(N-(2-hydroxy-3-(2-methyl-1-(naphthalen-2-yl)propan-2-ylamino)propyl)-N-methylsulfamoyl)biphenyl-4-carboxylic acid]
CN(C[C@H](O)CNC(C)(C)Cc1ccc2ccccc2c1)S(=O)(=O)c1cccc(-c2ccc(C(=O)O)cc2)c1 [Exp. 3-6, (R)-3′-(N-(2-hydroxy-3-(2-methyl-1-(naphthalen-2-yl)propan-2-ylamino)propyl)-N-methylsulfamoyl)biphenyl-4-carboxylic acid]
CN(C[C@H](O)CNC(C)(C)Cc1ccc2ccccc2c1)S(=O)(=O)c1ccc(-c2cccc(C=CC(=O)O)c2)cc1 [Exp. 3-39, (R)-3-(4′-(N-(2-hydroxy-3-(2-methyl-1-(naphthalen 2-yl)propan-2-ylamino)propyl)-N-methylsulfamoyl)biphenyl-3-yl)acrylic acid]
CN(C[C@H](O)CNC(C)(C)Cc1ccc2ccccc2c1)S(=O)(=O)c1cccc(-c2cc(N)cc(C(=O)O)c2)c1 [Exp. 3-17, (R)-5-amino-3′-(N-(2-hydroxy-3-(2-methyl-1-(naphthalen-2-yl)propan-2-ylamino)propyl)-N-methylsulfamoyl)biphenyl-3-carboxylic acid]
